Measurements published in patent publication US10183021B2, “sGC stimulators” (Ironwood Pharmaceuticals, Inc., priority 2013, dated 2019).
pIC50: −log10 of the molar value.

Tests used:
patients with BMD = conditions: single oral dose of 20 mg; cited from earlier work
obese mice = conditions: cited from earlier work
[1] = test system: Guinea pig tracheal smooth muscle; test: Electrical field stimulated guinea pig tracheal smooth muscle contraction; conditions: inhibition of EFS-induced guinea pig tracheal smooth muscle contraction; 95% CI 0.78-0.94
Text: It is possible to assess the bronchodilating effects of sGC stimulators by using the system described below. This system allows us to determine potency, efficacy and duration of action of several sGC stimulators, as well as to assess potential side effects such as blood pressure, or heart rate changes.
Animals: Guinea pig, Dunkin Hartley, male, Full barrier-bred and certified free of specific micro-organisms on receipt 525-609 g on the experimental day, Harlan UK Ltd. Guinea pigs are housed in a group of 4 in solid-bottomed cages with Gold Flake bedding in a controlled environment (airflow, temperature and humidity). Food (FD1, Special Diet Services) and water are provided ad libitum.
On each experimental day, a guinea pig is killed by exposure to a rising concentration of CO2 and the trachea removed. […] Tissues are washed with Kreb's buffer and stimulated using the previously determined sub-maximal voltage for 1 hour to establish a stable baseline contraction prior to assessment of compound activity.
A cumulative dose response curve (DRC) to each test substance is then performed and changes in smooth muscle contraction measured. The effect of each test substance in each experiment is expressed as a percentage inhibition of the baseline contraction, normalized to the relevant vehicle controls. […]

For `CN1CC(=O)N2[C@H](c3ccc4c(c3)OCO4)c3[nH]c4ccccc4c3C[C@@H]2C1=O` [tadalafil], the “blood flow regulation (exercise-induced attenuation of reflex vasoconstriction)” value (patients with BMD) is listed as “normal blood flow regulation was restored in eight of nine patients”.

In the case of `O=C(O)CCCCN(CCc1cc(F)ccc1OCc1ccc(-c2ccc(C(F)(F)F)cc2)cc1)Cc1ccc(C(=O)O)cc1` [BAY 60-2770], the “effect on overactive bladder” value (obese mice) is listed as “ameliorates overactive bladder in obese mice”.

`CC(C)[N+]1(C)[C@@H]2CC[C@H]1CC(OC(=O)C(CO)c1ccccc1)C2` (stereo partly drawn) [Ipratropium bromide] showed a pIC50 [1] of 9.07.
